Laboratory results as given in US20080161305A1, “C-Met Modulators and Methods of Use” (EXELIXIS, INC., priority 2005, published 2008).

Experiments:
Type in all cases: biochemical
[1] = molecular target: T1, Flt-3 (baculovirus expressed human Flt-3 kinase domain R571-S993) (Homo sapiens, UniProt P36888); test: flt-3 Luciferase-Coupled Chemiluminescent Kinase assay (LCCA); details: 5 μM ATP, 5 nM Flt-3; read-out: flt3 IC50
T1 construct: human Flt-3 kinase domain R571-S993; made in house
T1 sequence (P36888 571-993): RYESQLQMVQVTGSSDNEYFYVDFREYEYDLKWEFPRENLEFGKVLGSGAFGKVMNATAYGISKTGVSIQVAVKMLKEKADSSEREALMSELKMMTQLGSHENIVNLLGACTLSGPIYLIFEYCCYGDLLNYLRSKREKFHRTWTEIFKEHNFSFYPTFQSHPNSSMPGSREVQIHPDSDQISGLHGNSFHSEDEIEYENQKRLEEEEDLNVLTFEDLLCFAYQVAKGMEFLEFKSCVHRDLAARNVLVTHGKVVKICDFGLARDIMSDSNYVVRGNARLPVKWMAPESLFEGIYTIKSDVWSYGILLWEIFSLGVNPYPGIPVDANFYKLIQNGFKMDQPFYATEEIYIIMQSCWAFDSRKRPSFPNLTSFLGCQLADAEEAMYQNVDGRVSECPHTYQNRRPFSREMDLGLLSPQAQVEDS
Protocol: (§1) Kinase activity and compound inhibition are investigated using one or more of the three assay formats described below. The ATP concentrations for each assay are selected to be close to the Michaelis-Menten constant (KM) for each individual kinase. Dose-response experiments are performed at 10 different inhibitor concentrations in a 384-well plate format. The data are fitted to the following four-parameter equation:
(§2) Y=Min+(Max−Min)/(1+(X/IC50)̂H)
(§3) where Y is the observed signal, X is the inhibitor concentration, Min is the background signal in the absence of enzyme (0% enzyme activity), Max is the signal in the absence of inhibitor (100% enzyme activity), IC50 is the inhibitor concentration at 50% enzyme inhibition and H represents the empirical Hill's slope to measure the cooperativity. Typically H is close to unity. c-Met Assay
(§4) Biochemical activity for flt-3 was assessed using a Luciferase-Coupled Chemiluminescent Kinase assay (LCCA) format. Kinase activity was measured as the percent ATP remaining following the kinase reaction. Remaining ATP was detected by luciferase-luciferin-coupled chemiluminescence. […] The mixture is incubated at ambient temperature for 3 hours after which 20 uL luciferase-luciferin mix is added and the chemiluminescent signal read using a Wallac Victor^2 reader. […]

[2] = molecular target: T2, Flt-4 (baculovirus expressed human Flt-4 kinase domain D725-R1298) (Homo sapiens, UniProt P35916); test: flt-4 Alphascreen Tyrosine Kinase assay; details: 5 μM ATP, 1 nM Flt-4; read-out: flt4 IC50
T2 construct: human Flt-4 kinase domain D725-R1298; made in house
Protocol: as §1, §2, §3
Biochemical activity for flt-4 was assessed using an Alphascreen Tyrosine Kinase protocol. AlphaScreen™ (Perkin Elmer) technology is a proximity assay employing microparticles. […] Substrate phosphorylation was measured by addition of donor/acceptor beads by chemiluminescence following donor-acceptor bead complex formation. […] After 2-16 hr incubation at ambient temperature plates were read using an AlphaQuest reader (Perkin Elmer). IC50 values correlate well with those determined by radiometric assays.

c-Kit kinase = c-Kit kinase (Homo sapiens, UniProt P10721); test: c-Kit AlphaScreen assay
Protocol: as §1, §2, §3
c-Kit biochemical activity was assessed using AlphaScreen™ (Perkin Elmer) technology, described above. Test compounds, ATP, biotinylated poly(Glu, Tyr) and c-Kit kinase were combined in a volume of 20 μL in a 384-well white, medium binding microtiter plate (Greiner). Reaction mixtures were incubated for 1 hr at ambient temperature. […] After 16 hr incubation at ambient temperature plates were read using an AlphaQuest reader (Perkin Elmer).

[3] = molecular target: T3, KDR (baculovirus expressed human KDR kinase domain D807-V1356) (Homo sapiens, UniProt P35968); test: KDR Luciferase-Coupled Chemiluminescent Kinase assay (LCCA); details: 3 μM ATP, 5 nM KDR
T3 construct: human KDR kinase domain D807-V1356; made in house
Protocol: as §1, §2, §3
as §4, with “KDR biochemical” for “Biochemical”, “activity” for “activity for flt-3”, “4” for “3”

[4] = molecular target: c-Met (baculovirus expressed human c-Met kinase domain P948-S1343) (Homo sapiens, UniProt P08581); test: c-Met Luciferase-Coupled Chemiluminescent Kinase assay (LCCA); details: 1 μM ATP, 10 nM c-Met
Protocol: as §1, §2, §3
as §4, with “c-Met biochemical” for “Biochemical”, “activity” for “activity for flt-3”, “format as described above. Again, kinase” for “format. Kinase”, “2” for “3”

c-Kit kinase, sequence (P10721 26-976): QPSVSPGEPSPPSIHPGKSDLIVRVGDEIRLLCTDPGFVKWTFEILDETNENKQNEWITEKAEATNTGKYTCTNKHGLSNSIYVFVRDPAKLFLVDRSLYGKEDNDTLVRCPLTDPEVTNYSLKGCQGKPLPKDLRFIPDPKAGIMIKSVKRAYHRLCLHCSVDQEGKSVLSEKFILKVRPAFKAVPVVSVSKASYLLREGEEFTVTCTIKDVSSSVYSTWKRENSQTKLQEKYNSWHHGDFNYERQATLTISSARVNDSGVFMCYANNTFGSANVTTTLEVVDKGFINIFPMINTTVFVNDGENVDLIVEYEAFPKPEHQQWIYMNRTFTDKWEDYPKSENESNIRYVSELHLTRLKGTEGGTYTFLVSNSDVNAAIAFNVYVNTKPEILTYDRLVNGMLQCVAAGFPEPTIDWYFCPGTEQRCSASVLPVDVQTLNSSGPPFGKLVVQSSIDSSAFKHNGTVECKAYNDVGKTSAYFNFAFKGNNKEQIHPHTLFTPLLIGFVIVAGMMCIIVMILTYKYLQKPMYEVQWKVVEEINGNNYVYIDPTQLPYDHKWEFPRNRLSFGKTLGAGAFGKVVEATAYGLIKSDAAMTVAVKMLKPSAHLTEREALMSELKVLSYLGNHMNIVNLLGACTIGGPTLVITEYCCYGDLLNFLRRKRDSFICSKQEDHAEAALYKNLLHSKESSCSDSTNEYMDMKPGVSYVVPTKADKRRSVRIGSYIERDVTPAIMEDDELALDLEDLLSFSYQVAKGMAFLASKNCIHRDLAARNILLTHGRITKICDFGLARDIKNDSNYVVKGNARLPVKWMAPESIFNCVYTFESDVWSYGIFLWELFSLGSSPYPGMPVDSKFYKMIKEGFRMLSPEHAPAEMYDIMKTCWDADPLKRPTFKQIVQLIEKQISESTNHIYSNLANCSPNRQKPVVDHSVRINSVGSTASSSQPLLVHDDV
c-Met (baculovirus expressed human c-Met kinase domain P948-S1343), sequence (P08581 1078-1345 limits assumed): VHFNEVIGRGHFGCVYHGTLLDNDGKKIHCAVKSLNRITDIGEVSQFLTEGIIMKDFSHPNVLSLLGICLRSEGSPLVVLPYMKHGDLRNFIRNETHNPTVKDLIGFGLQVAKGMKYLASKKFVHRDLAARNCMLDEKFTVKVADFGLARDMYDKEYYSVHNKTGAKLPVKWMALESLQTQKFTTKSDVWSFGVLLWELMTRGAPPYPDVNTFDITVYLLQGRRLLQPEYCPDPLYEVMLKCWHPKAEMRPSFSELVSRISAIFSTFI
T3 sequence (P35968 807-1356): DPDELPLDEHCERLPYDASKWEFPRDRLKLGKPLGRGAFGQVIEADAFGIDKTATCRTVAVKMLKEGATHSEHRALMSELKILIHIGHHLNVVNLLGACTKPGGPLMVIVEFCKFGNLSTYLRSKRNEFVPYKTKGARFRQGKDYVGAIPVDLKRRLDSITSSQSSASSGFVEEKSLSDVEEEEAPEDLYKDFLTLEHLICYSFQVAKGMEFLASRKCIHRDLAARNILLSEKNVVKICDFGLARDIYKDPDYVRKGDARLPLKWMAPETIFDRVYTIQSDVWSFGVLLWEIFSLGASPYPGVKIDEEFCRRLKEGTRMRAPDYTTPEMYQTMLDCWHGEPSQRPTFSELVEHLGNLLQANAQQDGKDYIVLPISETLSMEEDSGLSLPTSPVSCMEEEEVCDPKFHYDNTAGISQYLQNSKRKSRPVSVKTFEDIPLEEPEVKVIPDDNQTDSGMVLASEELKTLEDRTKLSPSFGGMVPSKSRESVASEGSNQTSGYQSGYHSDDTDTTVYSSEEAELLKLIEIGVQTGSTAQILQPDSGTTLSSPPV
T2 sequence (P35916 725-1298 isoform P35916-1): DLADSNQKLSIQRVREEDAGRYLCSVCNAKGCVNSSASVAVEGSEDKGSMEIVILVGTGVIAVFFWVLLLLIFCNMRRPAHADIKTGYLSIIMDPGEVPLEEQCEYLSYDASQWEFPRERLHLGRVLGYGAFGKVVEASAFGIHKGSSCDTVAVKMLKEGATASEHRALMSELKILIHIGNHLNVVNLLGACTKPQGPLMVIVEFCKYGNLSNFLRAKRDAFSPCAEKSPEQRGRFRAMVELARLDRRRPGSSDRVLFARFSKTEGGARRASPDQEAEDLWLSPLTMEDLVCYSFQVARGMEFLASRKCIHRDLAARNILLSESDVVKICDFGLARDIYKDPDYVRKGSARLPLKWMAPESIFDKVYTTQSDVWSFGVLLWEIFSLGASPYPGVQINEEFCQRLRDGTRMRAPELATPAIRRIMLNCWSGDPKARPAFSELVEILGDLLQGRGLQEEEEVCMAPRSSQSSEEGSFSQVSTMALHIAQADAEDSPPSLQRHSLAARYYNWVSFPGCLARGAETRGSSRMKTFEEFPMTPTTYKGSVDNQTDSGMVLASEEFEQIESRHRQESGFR

IC50 [1]: < 0.05 µM
IC50 [2]: < 0.05 µM
IC50 (c-Kit kinase): < 0.05 µM
IC50 [3]: < 0.05 µM
IC50 [4]: < 0.05 µM
SMILES: COc1cc2c(Oc3ccc(NC(=O)C(=O)NCCc4ccc(F)cc4)cc3F)ccnc2cc1OCCCN1CCOCC1 [Entry 1, N-[3-fluoro-4-({6-(methyloxy)-7-[(3-morpholin-4-ylpropyl)oxy]quinolin-4-yl}oxy)phenyl]-N′-[2-(4-fluorophenyl)ethyl]ethanediamide]
